This note sets out measurements from the supplement of paper PMC10307832.

Holding throughout (assay): relative viability (nuclei count vs DMSO), 5 days (fraction); higher = more cells survive
Compound in the assay “MK-2206 + Phenformin”: NC1(c2ccc(-c3nc4ccn5c(=O)[nH]nc5c4cc3-c3ccccc3)cc2)CCC1 [MK-2206] + N=C(N)NC(=N)NCCc1ccccc1 [Phenformin] (partner 250 µM)
A digest of the protocol: (§1)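 Lung cancer cell lines were seeded in 1536-well plates and dosed by pin tool the next day, with either a single drug or a fixed anchor-drug dose combined with five library-drug doses (not always all listed) spaced in √10 steps. Five days later, one step fixed the cells and stained their nuclei (final 0.05% Triton X-100, 1% formaldehyde, 1 ug/ml Hoechst), and nuclei were counted on 4× images. Relative viability is the nuclei count in treated wells divided by the count in vehicle wells, and each value is the median of duplicate plates.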

Compound in the assay “Pictilisib + Crizotinib”: CS(=O)(=O)N1CCN(Cc2cc3nc(-c4cccc5[nH]ncc45)nc(N4CCOCC4)c3s2)CC1 [Pictilisib] + C[C@@H](Oc1cc(-c2cnn(C3CCNCC3)c2)cnc1N)c1c(Cl)ccc(F)c1Cl [Crizotinib] (partner 1 µM)
A digest of the protocol: as §1

Compound in the assay “MK-2206 + Foretinib”: NC1(c2ccc(-c3nc4ccn5c(=O)[nH]nc5c4cc3-c3ccccc3)cc2)CCC1 [MK-2206] + COc1cc2c(Oc3ccc(NC(=O)C4(C(=O)Nc5ccc(F)cc5)CC4)cc3F)ccnc2cc1OCCCN1CCOCC1 [Foretinib] (partner 0.25 µM)
A digest of the protocol: as §1

Compound in the assay “MK-2206 + Dasatinib”: NC1(c2ccc(-c3nc4ccn5c(=O)[nH]nc5c4cc3-c3ccccc3)cc2)CCC1 [MK-2206] + Cc1nc(Nc2ncc(C(=O)Nc3c(C)cccc3Cl)s2)cc(N2CCN(CCO)CC2)n1 [Dasatinib] (partner 0.075 µM)
The essentials:
as §1

Compound in the assay “Pictilisib + Foretinib”: CS(=O)(=O)N1CCN(Cc2cc3nc(-c4cccc5[nH]ncc45)nc(N4CCOCC4)c3s2)CC1 [Pictilisib] + COc1cc2c(Oc3ccc(NC(=O)C4(C(=O)Nc5ccc(F)cc5)CC4)cc3F)ccnc2cc1OCCCN1CCOCC1 [Foretinib] (partner 0.25 µM)
A digest of the protocol:
as §1

For the cell line UMC-11, the relative viability amounted to 0.351 with MK-2206 + Phenformin (first compound 0.01 µM); 0.312 with MK-2206 + Phenformin (first compound 0.03162 µM); 0.33 with MK-2206 + Phenformin (first compound 0.3162 µM); 0.316 with MK-2206 + Phenformin (first compound 1 µM); 0.633 with Pictilisib + Crizotinib (first compound 0.02 µM); 0.887 with Pictilisib + Crizotinib (first compound 0.06325 µM). In addition, the relative viability in the assay with Pictilisib + Crizotinib (first compound 0.6325 µM) stood at 0.733; with Pictilisib + Crizotinib (first compound 2 µM), 0.58; with MK-2206 + Foretinib (first compound 0.01 µM), 1.08; with MK-2206 + Foretinib (first compound 0.03162 µM), 1.1; with MK-2206 + Foretinib (first compound 0.3162 µM), 1.16; in the assay with MK-2206 + Foretinib (first compound 1 µM), 1.05. In addition, the relative viability with MK-2206 + Dasatinib (first compound 0.01 µM) worked out at 0.465; with MK-2206 + Dasatinib (first compound 0.03162 µM), 0.434; in the assay with MK-2206 + Dasatinib (first compound 0.3162 µM), 0.503; in the assay with MK-2206 + Dasatinib (first compound 1 µM), 0.475; with Pictilisib + Foretinib (first compound 0.02 µM) it was 0.983; with Pictilisib + Foretinib (first compound 0.06325 µM), 1.25. For the same cell line, the relative viability was found to be 1.13 with Pictilisib + Foretinib (first compound 0.6325 µM) and 0.979 with Pictilisib + Foretinib (first compound 2 µM).
